Reference: patent US20230407243A1, “GENETIC PLATFORM TO INVESTIGATE THE FUNCTIONS OF BACTERIAL DRUG EFFLUX PUMPS” (priority 2022, published 2023)

Assays:
Format in all cases: cell-based, Escherichia coli
[1] = tested on: E. coli EKO-35; assay: microbe, parasite or virus in culture; conditions: for Fold change of MICs: EKO-35 compared to EKO-35 (reference); for Minimum inhibitory concentration (MIC), EKO-35: Table 10, without pore; for Minimum inhibitory concentration (MIC), EKO-35 / Minimum Inhibitory Concentration, EKO-35: technical duplicate; for Minimum Inhibitory Concentration, EKO-35: Table 13A, non-porinated
Summary of the method: (§1)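 OD600 read-out, background-corrected, after 18 h at 37 °C with shaking. Compounds were tested in duplicate as 2-fold series in MHB II, with DMSO as solvent control. Inoculum was a 1/2000 dilution of an OD600 ~1.0 PBS suspension.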

[2] = tested on: E. coli ΔtolC; assay: microbe, parasite or virus in culture; conditions: technical duplicate; for Minimum inhibitory concentration (MIC), ΔtolC: Table 10, without pore; for Minimum Inhibitory Concentration, ΔtolC: Table 13A, non-porinated
Summary of the method: as §1

[3] = tested on: wild-type E. coli K-12 str. BW25113; assay: microbe, parasite or virus in culture; conditions: technical duplicate; for Minimum inhibitory concentration (MIC), K-12: Table 10, without pore; for Minimum Inhibitory Concentration, K-12: Table 13A, non-porinated
Summary of the method: as §1

[4] = tested on: EKO-35-Pore; assay: MIC susceptibility profiling, porinated strain; conditions: for Fold changes of MICs: EKO-35-Pore compared to EKO-35-Pore (reference); for Minimum inhibitory concentration (MIC), Pore EKO-35: Table 10, with pore; for Minimum inhibitory concentration (MIC), Pore EKO-35 / Minimum inhibitory concentration, EKO-35-Pore: technical duplicate; for Minimum inhibitory concentration, EKO-35-Pore: Table 14A, porinated
Summary of the method: (§2)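 Strains carry the fhuA ΔC/Δ4L pore integrated between glmS and pstS under a constitutive promoter, with pore activity checked by vancomycin susceptibility. Overnight LB cultures were adjusted in PBS pH 7.4 to OD600 ~1.0 and diluted 1/2000 into MHB II. 2-fold compound titrations were read by OD600 after 18 h at 37 °C.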

[5] = tested on: ΔtolC-Pore; assay: microbe, parasite or virus in culture; conditions: technical duplicate; for Minimum inhibitory concentration (MIC), Pore ΔtolC: Table 10, with pore; for Minimum inhibitory concentration, ΔtolC-Pore: Table 14A, porinated
Summary of the method: as §2

[6] = tested on: wild-type (WT) K-12-Pore; assay: microbe, parasite or virus in culture; conditions: technical duplicate; for Minimum inhibitory concentration (MIC), Pore K-12: Table 10, with pore; for Minimum inhibitory concentration, K-12 (WT)-Pore: Table 14A, porinated
Summary of the method: as §2

[7] = tested on: EKO-35 araC::emrAB; assay: MIC susceptibility profiling, efflux platform; conditions: for Fold change of MICs: EKO-35 araC::emrAB compared to EKO-35; for Minimum Inhibitory Concentration, EKO-35 araC::emrAB: Table 13B, non-porinated, technical duplicate
Summary of the method: as §1

[8] = tested on: EKO-35 araC::acrEF; assay: MIC susceptibility profiling, efflux platform; conditions: for Fold change of MICs: EKO-35 araC::acrEF compared to EKO-35; for Minimum Inhibitory Concentration, EKO-35 araC::acrEF: Table 13A, non-porinated, technical duplicate
Summary of the method: as §1

[9] = tested on: EKO-35 araC::macAB; assay: MIC susceptibility profiling, efflux platform; conditions: for Fold change of MICs: EKO-35 araC::macAB compared to EKO-35; for Minimum Inhibitory Concentration, EKO-35 araC::macAB: Table 13B, non-porinated, technical duplicate
Summary of the method: as §1

[10] = tested on: EKO-35 araC::emrAB Pore; assay: MIC susceptibility profiling, porinated efflux platform; conditions: for Fold changes of MICs: EKO-35 araC::emrAB Pore compared to EKO-35-Pore; for Minimum inhibitory concentration: EKO-35 araC::emrAB Pore, technical duplicate
Summary of the method: as §2

[11] = tested on: EKO-35 araC::acrD Pore; assay: as above; conditions: for Fold changes of MICs: EKO-35 araC::acrD Pore compared to EKO-35-Pore; for Minimum inhibitory concentration, EKO-35 araC::acrD Pore: Table 14A, porinated, technical duplicate
Summary of the method: as §2

[12] = tested on: EKO-35 araC::emrKY Pore; assay: as above; conditions: for Fold changes of MICs: EKO-35 araC::emrKY Pore compared to EKO-35-Pore; for Minimum inhibitory concentration: EKO-35 araC::emrKY Pore, technical duplicate
Summary of the method: as §2

[13] = tested on: EKO-35 araC::acrB Pore; assay: as above; conditions: for Fold changes of MICs: EKO-35 araC::acr-B Pore compared to EKO-35-Pore; for Minimum inhibitory concentration, EKO-35 araC::acrB Pore: Table 14A, porinated, technical duplicate
Summary of the method: as §2

[14] = tested on: EKO-35 araC::macAB Pore; assay: as above; conditions: for Fold changes of MICs: EKO-35 araC::macAB Pore compared to EKO-35-Pore; for Minimum inhibitory concentration: EKO-35 araC::macAB Pore, technical duplicate
Summary of the method: as §2

[15] = tested on: EKO-35 araC::mdtEF Pore; assay: as above; conditions: for Fold changes of MICs: EKO-35 araC::mdtEF Pore compared to EKO-35-Pore; for Minimum inhibitory concentration, EKO-35 araC::mdtEF Pore: Table 14A, porinated, technical duplicate
Summary of the method: as §2

[16] = tested on: EKO-35 araC::mdtBC Pore; assay: as above; conditions: for Fold changes of MICs: EKO-35 araC::mdtBC Pore compared to EKO-35-Pore; for Minimum inhibitory concentration: EKO-35 araC::mdtBC Pore, technical duplicate
Summary of the method: as §2

[17] = tested on: EKO-35 araC::acrEF Pore; assay: as above; conditions: for Fold changes of MICs: EKO-35 araC::acrEF Pore compared to EKO-35-Pore; for Minimum inhibitory concentration, EKO-35 araC::acrEF Pore: Table 14A, porinated, technical duplicate
Summary of the method: as §2

[18] = tested on: EKO-35 araC::mexCD Pore; assay: as above; conditions: for Fold changes of MICs: EKO-35 araC::mexCD Pore compared to EKO-35-Pore; for Minimum inhibitory concentration: EKO-35 araC::mexCD Pore, technical duplicate
Summary of the method: as §2

[19] = tested on: EKO-35 araC::acrBD408A Pore; assay: as above; conditions: for Fold changes of MICs: EKO-35 araC::acrBD408A Pore compared to EKO-35-Pore; for Minimum inhibitory concentration: EKO-35 araC::acrBD408A Pore, technical duplicate
Summary of the method: as §2

SMILES: O=C(Nc1ccccc1)Nc1ccc(Br)c(C(F)(F)F)c1 [compound 6]
- Fold change of MICs [1]: 1 fold
- Minimum inhibitory concentration (MIC), EKO-35 [1]: 320 µg/mL
- Minimum Inhibitory Concentration, EKO-35 [1]: 320 µg/mL
- Minimum inhibitory concentration (MIC), ΔtolC [2]: 0.625 µg/mL
- Minimum Inhibitory Concentration, ΔtolC [2]: 0.625 µg/mL
- Minimum inhibitory concentration (MIC), K-12 [3]: 320 µg/mL
- Minimum Inhibitory Concentration, K-12 [3]: 320 µg/mL
- Fold changes of MICs [4]: 1 fold
- Minimum inhibitory concentration (MIC), Pore EKO-35 [4]: 320 µg/mL
- Minimum inhibitory concentration, EKO-35-Pore [4]: 320 µg/mL
- Minimum inhibitory concentration (MIC), Pore ΔtolC [5]: 0.625 µg/mL
- Minimum inhibitory concentration, ΔtolC-Pore [5]: 0.625 µg/mL
- Minimum inhibitory concentration (MIC), Pore K-12 [6]: 320 µg/mL
- Minimum inhibitory concentration, K-12 (WT)-Pore [6]: 320 µg/mL
- Fold change of MICs [7]: 1 fold
- Minimum Inhibitory Concentration, EKO-35 araC::emrAB [7]: 320 µg/mL
- Fold change of MICs [8]: 1 fold
- Minimum Inhibitory Concentration, EKO-35 araC::acrEF [8]: 320 µg/mL
- Fold change of MICs [9]: 1 fold
- Minimum Inhibitory Concentration, EKO-35 araC::macAB [9]: 320 µg/mL
- Fold changes of MICs [10]: 1 fold
- Minimum inhibitory concentration [10]: 320 µg/mL
- Fold changes of MICs [11]: 1 fold
- Minimum inhibitory concentration, EKO-35 araC::acrD Pore [11]: 320 µg/mL
- Fold changes of MICs [12]: 1 fold
- Minimum inhibitory concentration [12]: 320 µg/mL
- Fold changes of MICs [13]: 1 fold
- Minimum inhibitory concentration, EKO-35 araC::acrB Pore [13]: 320 µg/mL
- Fold changes of MICs [14]: 1 fold
- Minimum inhibitory concentration [14]: 320 µg/mL
- Fold changes of MICs [15]: 1 fold
- Minimum inhibitory concentration, EKO-35 araC::mdtEF Pore [15]: 320 µg/mL
- Fold changes of MICs [16]: 1 fold
- Minimum inhibitory concentration [16]: 320 µg/mL
- Fold changes of MICs [17]: 1 fold
- Minimum inhibitory concentration, EKO-35 araC::acrEF Pore [17]: 320 µg/mL
- Fold changes of MICs [18]: 1 fold
- Minimum inhibitory concentration [18]: 320 µg/mL
- Fold changes of MICs [19]: 1 fold
- Minimum inhibitory concentration [19]: 320 µg/mL

SMILES: O=C(Nc1ccc(C(F)(F)F)cc1)Nc1ccc(C(F)(F)F)cc1 [compound 7]
- Fold change of MICs [1]: 1 fold
- Minimum inhibitory concentration (MIC), EKO-35 [1]: 320 µg/mL
- Minimum Inhibitory Concentration, EKO-35 [1]: 320 µg/mL
- Minimum inhibitory concentration (MIC), ΔtolC [2]: 0.313 µg/mL
- Minimum Inhibitory Concentration, ΔtolC [2]: 0.313 µg/mL
- Minimum inhibitory concentration (MIC), K-12 [3]: 320 µg/mL
- Minimum Inhibitory Concentration, K-12 [3]: 320 µg/mL
- Fold changes of MICs [4]: 1 fold
- Minimum inhibitory concentration (MIC), Pore EKO-35 [4]: 320 µg/mL
- Minimum inhibitory concentration, EKO-35-Pore [4]: 320 µg/mL
- Minimum inhibitory concentration (MIC), Pore ΔtolC [5]: 0.313 µg/mL
- Minimum inhibitory concentration, ΔtolC-Pore [5]: 0.313 µg/mL
- Minimum inhibitory concentration (MIC), Pore K-12 [6]: 320 µg/mL
- Minimum inhibitory concentration, K-12 (WT)-Pore [6]: 320 µg/mL
- Fold change of MICs [7]: 1 fold
- Minimum Inhibitory Concentration, EKO-35 araC::emrAB [7]: 320 µg/mL
- Fold change of MICs [8]: 1 fold
- Minimum Inhibitory Concentration, EKO-35 araC::acrEF [8]: 320 µg/mL
- Fold change of MICs [9]: 1 fold
- Minimum Inhibitory Concentration, EKO-35 araC::macAB [9]: 320 µg/mL
- Fold changes of MICs [10]: 1 fold
- Minimum inhibitory concentration [10]: 320 µg/mL
- Fold changes of MICs [11]: 1 fold
- Minimum inhibitory concentration, EKO-35 araC::acrD Pore [11]: 320 µg/mL
- Fold changes of MICs [12]: 1 fold
- Minimum inhibitory concentration [12]: 320 µg/mL
- Fold changes of MICs [13]: 1 fold
- Minimum inhibitory concentration, EKO-35 araC::acrB Pore [13]: 320 µg/mL
- Fold changes of MICs [14]: 1 fold
- Minimum inhibitory concentration [14]: 320 µg/mL
- Fold changes of MICs [15]: 1 fold
- Minimum inhibitory concentration, EKO-35 araC::mdtEF Pore [15]: 320 µg/mL
- Fold changes of MICs [16]: 1 fold
- Minimum inhibitory concentration [16]: 320 µg/mL
- Fold changes of MICs [17]: 1 fold
- Minimum inhibitory concentration, EKO-35 araC::acrEF Pore [17]: 320 µg/mL
- Fold changes of MICs [18]: 1 fold
- Minimum inhibitory concentration [18]: 320 µg/mL
- Fold changes of MICs [19]: 1 fold
- Minimum inhibitory concentration [19]: 320 µg/mL

SMILES: N#CC(C#N)=NNc1ccc(-n2ccc(C(F)(F)F)n2)cc1 [compound 8]
- Fold change of MICs [1]: 1 fold
- Minimum inhibitory concentration (MIC), EKO-35 [1]: 320 µg/mL
- Minimum Inhibitory Concentration, EKO-35 [1]: 320 µg/mL
- Minimum inhibitory concentration (MIC), ΔtolC [2]: 1.25 µg/mL
- Minimum Inhibitory Concentration, ΔtolC [2]: 1.25 µg/mL
- Minimum inhibitory concentration (MIC), K-12 [3]: 640 µg/mL
- Minimum Inhibitory Concentration, K-12 [3]: 640 µg/mL
- Fold changes of MICs [4]: 1 fold
- Minimum inhibitory concentration (MIC), Pore EKO-35 [4]: 80 µg/mL
- Minimum inhibitory concentration, EKO-35-Pore [4]: 80 µg/mL
- Minimum inhibitory concentration (MIC), Pore ΔtolC [5]: 1.25 µg/mL
- Minimum inhibitory concentration, ΔtolC-Pore [5]: 1.25 µg/mL
- Minimum inhibitory concentration (MIC), Pore K-12 [6]: 160 µg/mL
- Minimum inhibitory concentration, K-12 (WT)-Pore [6]: 160 µg/mL
- Fold change of MICs [7]: 1 fold
- Minimum Inhibitory Concentration, EKO-35 araC::emrAB [7]: 320 µg/mL
- Fold change of MICs [8]: 1 fold
- Minimum Inhibitory Concentration, EKO-35 araC::acrEF [8]: 320 µg/mL
- Fold change of MICs [9]: 1 fold
- Minimum Inhibitory Concentration, EKO-35 araC::macAB [9]: 320 µg/mL
- Fold changes of MICs [10]: 1 fold
- Minimum inhibitory concentration [10]: 40 µg/mL
- Fold changes of MICs [11]: 1 fold
- Minimum inhibitory concentration, EKO-35 araC::acrD Pore [11]: 40 µg/mL
- Fold changes of MICs [12]: 1 fold
- Minimum inhibitory concentration [12]: 80 µg/mL
- Fold changes of MICs [13]: 2 fold
- Minimum inhibitory concentration, EKO-35 araC::acrB Pore [13]: 160 µg/mL
- Fold changes of MICs [14]: 1 fold
- Minimum inhibitory concentration [14]: 80 µg/mL
- Fold changes of MICs [15]: 1 fold
- Minimum inhibitory concentration, EKO-35 araC::mdtEF Pore [15]: 80 µg/mL
- Fold changes of MICs [16]: 1 fold
- Minimum inhibitory concentration [16]: 80 µg/mL
- Fold changes of MICs [17]: 1 fold
- Minimum inhibitory concentration, EKO-35 araC::acrEF Pore [17]: 40 µg/mL
- Fold changes of MICs [18]: 1 fold
- Minimum inhibitory concentration [18]: 80 µg/mL
- Fold changes of MICs [19]: 1 fold
- Minimum inhibitory concentration [19]: 80 µg/mL
